In patent publication US8367732B2, “Di-fluoro containing compounds as cysteine protease inhibitors” (Virobay, Inc., priority 2006, dated 2013):

Assays:
Type in all cases: biochemical
Human cathepsin S = Human cathepsin S (Homo sapiens, UniProt P25774); experiment: Cathepsin S Assay; conditions: apparent inhibition constant; substrate Z-Val-Val-Arg-AMC; pH 6.5
Description: (§1) Solutions of test compounds in varying concentrations were prepared in 10 μL of dimethyl sulfoxide (DMSO) and then diluted into assay buffer (40 μL, comprising: MES, 50 mM (pH 6.5); EDTA, 2.5 mM; and NaCl, 100 mM); β-mercaptoethanol, 2.5 mM; and BSA, 0.00%. Human cathepsin S (0.05 pMoles in 25 μL of assay buffer) was added to the dilutions. The assay solutions were mixed for 5-10 seconds on a shaker plate, covered and incubated for 30 min at room temperature. Z-Val-Val-Arg-AMC (4 nMoles in 25 μL of assay buffer containing 10% DMSO) was added to the assay solutions and hydrolysis was followed spectrophotometrically (at λ 460 nm) for 5 min. Apparent inhibition constants (Ki) were calculated from the enzyme progress curves using standard mathematical models.

Human cathepsin F = target: T1, Human cathepsin F (Homo sapiens, UniProt Q9UBX1); experiment: Cathepsin F Assay; conditions: apparent inhibition constant; substrate Z-Phe-Arg-AMC; pH 6.5
T1 sequence (Q9UBX1 271-484): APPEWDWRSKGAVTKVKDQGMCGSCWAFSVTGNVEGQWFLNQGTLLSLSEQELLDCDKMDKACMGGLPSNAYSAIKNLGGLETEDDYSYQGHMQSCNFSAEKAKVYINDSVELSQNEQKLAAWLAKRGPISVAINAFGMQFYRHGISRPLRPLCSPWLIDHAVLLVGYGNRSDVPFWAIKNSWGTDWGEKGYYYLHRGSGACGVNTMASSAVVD
Description: as §1, with “DTT,” for “β-mercaptoethanol,”, “0.01%.” for “0.00%.”, “F (0.1” for “S (0.05”, “Z-Phe-Arg-AMC (2” for “Z-Val-Val-Arg-AMC (4”

Human cathepsin L = Human cathepsin L (Homo sapiens, UniProt P07711); experiment: Cathepsin L Assay; conditions: apparent inhibition constant; substrate Z-Phe-Arg-AMC; pH 5.5
Chain of Human cathepsin L (P07711 114-333): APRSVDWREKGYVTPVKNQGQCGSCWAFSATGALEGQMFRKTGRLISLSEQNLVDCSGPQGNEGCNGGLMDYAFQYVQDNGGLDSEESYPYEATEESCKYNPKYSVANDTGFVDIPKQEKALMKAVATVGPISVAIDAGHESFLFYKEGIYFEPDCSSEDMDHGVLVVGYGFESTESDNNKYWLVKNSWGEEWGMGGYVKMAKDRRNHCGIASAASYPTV
Description: (§2) Solutions of test compounds in varying concentrations were prepared in 10 μL of dimethyl sulfoxide (DMSO) and then diluted into assay buffer (40 μL, comprising: MES, 50 mM (pH 5.5); EDTA, 2.5 mM; and DTT, 2.5 mM). Human cathepsin L (0.05 pMoles in 25 μL of assay buffer) was added to the dilutions. The assay solutions were mixed for 5-10 seconds on a shaker plate, covered and incubated for 30 min at room temperature. Z-Phe-Arg-AMC (1 nMoles in 25 μL of assay buffer) was added to the assay solutions and hydrolysis was followed spectrophotometrically at (λ 460 nm) for 5 min. Apparent inhibition constants (Ki) were calculated from the enzyme progress curves using standard mathematical models.

Human cathepsin B = Human cathepsin B (Homo sapiens, UniProt P07858); experiment: Cathepsin B Assay; conditions: apparent inhibition constant; substrate Z-FR-AMC; pH 6
Description: as §2, with “N,N-bis(2-hydroxyethyl)-2-aminoethanesulfonic acid (BES),” for “MES,”, “6); polyoxyethylenesorbitan monolaurate, 0.05%;” for “5.5); EDTA, 2.5 mM;”, “dithiothreitol (DTT),” for “DTT,”, “B (0.025” for “L (0.05”, “Z-FR-AMC (20” for “Z-Phe-Arg-AMC (1”

Chain of Human cathepsin S (P25774 115-331): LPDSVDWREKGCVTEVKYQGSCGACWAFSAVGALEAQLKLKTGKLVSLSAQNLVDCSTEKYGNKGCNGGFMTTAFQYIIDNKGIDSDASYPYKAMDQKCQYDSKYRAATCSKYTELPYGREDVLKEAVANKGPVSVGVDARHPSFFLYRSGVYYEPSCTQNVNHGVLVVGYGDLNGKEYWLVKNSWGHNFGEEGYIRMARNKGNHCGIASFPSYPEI

Ki (Human cathepsin S)	Ki (Human cathepsin F)	Ki (Human cathepsin L)	Ki (Human cathepsin B)	Structure (SMILES)
< 20 nM	21 to 500 nM	21 to 500 nM	21 to 500 nM	N#CC1(NC(=O)[C@H](CC(F)(F)CC2CC2)N[C@@H](c2ccc(F)cc2)C(F)(F)F)CC1
< 20 nM				CCCCC(F)(F)C[C@H](N[C@@H](c1ccc(F)cc1)C(F)(F)F)C(=O)NC1(C#N)CC1
< 20 nM				CCC(F)(F)CC[C@H](N[C@@H](c1ccc(F)cc1)C(F)(F)F)C(=O)NC1(C#N)CC1

Second part, the compound before the results:

Structure (SMILES)	Ki (Human cathepsin S)	Ki (Human cathepsin F)	Ki (Human cathepsin L)	Ki (Human cathepsin B)
N#CC1(NC(=O)[C@H](CC(F)(F)Cc2ccccc2)N[C@@H](c2ccc(F)cc2)C(F)(F)F)CC1	< 20 nM	500 to 5000 nM	21 to 500 nM	21 to 500 nM
N#CC1(NC(=O)[C@H](CC(F)(F)c2ccccc2)N[C@@H](c2ccc(F)cc2)C(F)(F)F)CC1	< 20 nM	> 5000 nM	500 to 5000 nM	> 5000 nM
CC(C)CC(F)(F)C[C@H](N[C@@H](c1ccc(F)cc1)C(F)(F)F)C(=O)NC1(C#N)CC1	< 20 nM	21 to 500 nM	21 to 500 nM	21 to 500 nM
CCC(F)(F)C[C@H](N[C@@H](c1ccc(F)cc1)C(F)(F)F)C(=O)NC1(C#N)CC1	< 20 nM	21 to 500 nM	21 to 500 nM	21 to 500 nM
CCCC(F)(F)C[C@H](N[C@@H](c1ccc(F)cc1)C(F)(F)F)C(=O)NC1(C#N)CC1	< 20 nM	21 to 500 nM	21 to 500 nM	21 to 500 nM
